In patent publication US20050124562A1, “Bis-quinazoline compounds for the treatment of bacterial infections” (priority 2003, published 2005) one finds MIC data, which are given here for 15 compounds.

Holding throughout (type): cell-based
In test [1] the test system is efflux mutants of E. coli. Kind of test: Broth microdilution MIC (NCCLS), E. coli efflux mutants. To be noted: Escherichia coli, read-out: MICs. As to the method:
(§1) Representative bis-quinazolines were tested for antibacterial activity using the […] microdilution method to determine their minimum inhibitory concentrations (MICs). All compounds were tested using standard methods in accordance with NCCLS guidelines (National Committee for Clinical Laboratory Standards. 2003. Methods for dilution antimicrobial susceptibility testing for bacteria that grow aerobically. Approved Standard M-7 A-6, NCCLS, Wayne, Pa.). The bacterial strains used in the susceptibility tests were obtained from the American Type Culture Collection (ATCC) and included resistant phenotypes such as oxacillin-resistant S. aureus (ORSA) and vancomycin-resistant enterococci (VRE). The minimum bactericidal concentrations (MBCs) were determined for selected organisms. The effect of protein binding on the antibacterial activity of representative bis-quinazolines were determined by conducting MIC tests in the presence of human serum.

Test [2] relates to H. influenzae. Nature of the test: Broth microdilution MIC (NCCLS), H. influenzae. To be noted: Haemophilus influenzae; some strains of H. influenzae. As to the method: as §1
On the technique in general: Broth dilution looks for growth in wells or tubes with falling amounts of substance.

The subject of test [3] is M. catarrhalis. Kind of test: Broth microdilution MIC (NCCLS), M. catarrhalis. To be noted: Moraxella catarrhalis; some strains of M. catarrhalis; read-out: MIC range. As to the method: as §1
In test [4] the test system is S. aureus, E. faecalis, S. pyogenes and S. pneumoniae. Kind of test: Broth microdilution MIC (NCCLS), gram-positive strains. To be noted: range against some strains of S. aureus, E. faecalis, S. pyogenes and S. pneumoniae; read-out: MIC. In short, it runs like this:
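MICs by broth microdilution per NCCLS M-7 A-6 against ATCC strains, including ORSA and VRE; MBCs determined for selected organisms. Serum effect assessed by repeating MIC tests with human serum present.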

Test [5] has as its system efflux mutants of P. aeruginosa. Nature of the test: Broth microdilution MIC (NCCLS), P. aeruginosa efflux mutants. To be noted: Pseudomonas aeruginosa, read-out: MICs. On the procedure:
as §1

As to `COc1cccc2c(C)nc(Nc3nc(O)c4cc(OCCN5CCC(O)C5)ccc4n3)nc12.O=C(O)C(F)(F)F` (stereo not drawn) [Example 138, 6-[2-(3-Hydroxy-pyrrolidin-1-yl)-ethoxy]-2-(8-methoxy-4-methyl-quinazolin-2-ylamino)-quinazolin-4-ol trifluoroacetate salt], the MIC in test [1] is 16 to 64 µg/mL; in test [2], 16 to 32 µg/mL; in test [3] it was 2 to 64 µg/mL; in test [4], 0.06 to 16 µg/mL; in test [5] it was 64 µg/mL.
Taken in the same sequence, the figures for `COc1cc2nc(Nc3nc(O)c4cc(OCCN(CCO)CCO)ccc4n3)nc(C)c2cc1OC.O=C(O)C(F)(F)F` [Example 158, 6-{2-[Bis-(2-hydroxy-ethyl)-amino]-ethoxy}-2-(6,7-dimethoxy-4-methyl-quinazolin-2-ylamino)-quinazolin-4-ol trifluoroacetate salt] were 16 to 64 µg/mL, 16 to 32 µg/mL, 2 to 64 µg/mL, 0.06 to 16 µg/mL and 64 µg/mL.
The like results for `COc1cc2nc(Nc3nc(O)c4cc(OCCN5CCC(O)C5)ccc4n3)nc(C)c2cc1OC.O=C(O)C(F)(F)F` (stereo not drawn) [Example 154, 2-(6,7-Dimethoxy-4-methyl-quinazolin-2-ylamino)-6-[2-(3-hydroxy-pyrrolidin-1-yl)-ethoxy]-quinazolin-4-ol trifluoroacetate salt] were, in that order, 16 to 64 µg/mL, 16 to 32 µg/mL, 2 to 64 µg/mL, 0.06 to 16 µg/mL and 64 µg/mL.
Taken in the same sequence, the figures for `CCN(CC)CCOc1ccc2nc(Nc3nc(C)c4cc(OC)cc(OC)c4n3)nc(O)c2c1.O=C(O)C(F)(F)F` [Example 144, 6-(2-Diethylamino-ethoxy)-2-(6,8-dimethoxy-4-methyl-quinazolin-2-ylamino)-quinazolin-4-ol trifluoroacetate salt] were 16 to 64 µg/mL, 16 to 32 µg/mL, 2 to 64 µg/mL, 0.06 to 16 µg/mL and 64 µg/mL.
With `COc1cc(OC)c2nc(Nc3nc(O)c4cc(OCCN5CCCC5)ccc4n3)nc(C)c2c1.O=C(O)C(F)(F)F` [Example 166, 2-(6,8-Dimethoxy-4-methyl-quinazolin-2-ylamino)-6-(2-pyrrolidin-1-yl-ethoxy)-quinazolin-4-ol trifluoroacetate salt], the MIC was 16 to 64 µg/mL in test [1]; 16 to 32 µg/mL in test [2]; 2 to 64 µg/mL in test [3]; 0.06 to 16 µg/mL in test [4]; 64 µg/mL in test [5].
The like results for `COc1cc(OC)c2nc(Nc3nc(O)c4c(OC)cccc4n3)nc(C)c2c1.O=C(O)C(F)(F)F` [Example 85, 2-(6,8-Dimethoxy-4-methyl-quinazolin-2-ylamino)-5-methoxy-quinazolin-4-ol trifluoroacetate salt] were, in that order, 16 to 64 µg/mL, 16 to 32 µg/mL, 2 to 64 µg/mL, 0.06 to 16 µg/mL and 64 µg/mL.
The like results for `Cc1nc(Nc2nc(O)c3cccc(F)c3n2)nc2cc3c(cc12)OCCO3.O=C(O)C(F)(F)F` [Example 108, 8-Fluoro-2-(4-methyl-7,8-dihydro-[1,4]dioxino[2,3-g]quinazolin-2-ylamino)-quinazolin-4-ol trifluoroacetate salt] were, in that order, 16 to 64 µg/mL, 16 to 32 µg/mL, 2 to 64 µg/mL, 0.06 to 16 µg/mL and 64 µg/mL.
The like results for `COc1cc2c(C)nc(Nc3nc(O)c4c(OC)cccc4n3)nc2cc1F.O=C(O)C(F)(F)F` [Example 94, 2-(7-Fluoro-6-methoxy-4-methyl-quinazolin-2-ylamino)-5-methoxy-quinazolin-4-ol trifluoroacetate salt] were, in that order, 16 to 64 µg/mL, 16 to 32 µg/mL, 2 to 64 µg/mL, 0.06 to 16 µg/mL and 64 µg/mL.
For `COc1cc2nc(Nc3nc(O)c4cc(OCCNC(CO)CO)ccc4n3)nc(C)c2cc1OC.O=C(O)C(F)(F)F` [Example 165, 2-{2[-2-(6,7-Dimethoxy-4-methyl-quinazolin-2-ylamino)-4-hydroxy-quinazolin-6-yloxy]-ethylamino}-propane-1,3-diol trifluoroacetate salt], the MIC in test [1] is 16 to 64 µg/mL; in test [2], 16 to 32 µg/mL; in test [3], 2 to 64 µg/mL; in test [4], 0.06 to 16 µg/mL; in test [5] it was 64 µg/mL.
The like results for `COc1cc(OC)c2nc(Nc3nc(O)c4cc(OCCNC(C)CO)ccc4n3)nc(C)c2c1.O=C(O)C(F)(F)F` (stereo not drawn) [Example 143, 2-(6,8-Dimethoxy-4-methyl-quinazolin-2-ylamino)-6-[2-(2-hydroxy-1-methyl-ethylamino)-ethoxy]-quinazolin-4-ol trifluoroacetate salt] were, in that order, 16 to 64 µg/mL, 16 to 32 µg/mL, 2 to 64 µg/mL, 0.06 to 16 µg/mL and 64 µg/mL.
On to `COc1cc2nc(Nc3nc(O)c4cc(OCCNC(CO)C(C)C)ccc4n3)nc(C)c2cc1OC.O=C(O)C(F)(F)F` (stereo not drawn) [Example 142, 2-(6,7-Dimethoxy-4-methyl-quinazolin-2-ylamino)-6-[2-(1-hydroxymethyl-2-methyl-propylamino)-ethoxy]-quinazolin-4-ol Trifluoroacetate salt], for which the MIC was 16 to 64 µg/mL in test [1]; 16 to 32 µg/mL in test [2]; 2 to 64 µg/mL in test [3]; 0.06 to 16 µg/mL in test [4]; 64 µg/mL in test [5].
The like results for `COc1cc2nc(Nc3nc(O)c4cc(OCCN5CCCC5CO)ccc4n3)nc(C)c2cc1OC.O=C(O)C(F)(F)F` (stereo not drawn) [Example 164, 2-(6,7-Dimethoxy-4-methyl-quinazolin-2-ylamino)-6-[2-(2-hydroxymethyl-pyrrolidin-1-yl)-ethoxy]-quinazolin-4-ol trifluoroacetate salt] were, in that order, 16 to 64 µg/mL, 16 to 32 µg/mL, 2 to 64 µg/mL, 0.06 to 16 µg/mL and 64 µg/mL.
With `COc1cc2nc(Nc3nc(O)c4cc(OCCN5CCCCC5)ccc4n3)nc(C)c2cc1OC.O=C(O)C(F)(F)F` [Example 145, 2-(6,7-Dimethoxy-4-methyl-quinazolin-2-ylamino)-6-(2-piperidin-1-yl-ethoxy)-quinazolin-4-ol trifluoroacetate salt], the MIC in test [1] is 16 to 64 µg/mL; in test [2] it was 16 to 32 µg/mL; in test [3], 2 to 64 µg/mL; in test [4], 0.06 to 16 µg/mL; in test [5] it was 64 µg/mL.
The like results for `COc1cc2c(C)nc(Nc3nc(O)c4cccc(OC)c4n3)nc2cc1[N+](=O)[O-].O=C(O)C(F)(F)F` [Example 77, 2-(6-methoxy-7-nitro-4-methyl-quinazolin-2-ylamino)-8-methoxy-quinazolin-4-ol trifluoroacetate salt] were, in that order, 16 to 64 µg/mL, 16 to 32 µg/mL, 2 to 64 µg/mL, 0.06 to 16 µg/mL and 64 µg/mL.
Taken in the same sequence, the figures for `COc1ccc2nc(Nc3nc(O)c4cc(OC)c(OC)c(OC)c4n3)nc(C)c2c1.O=C(O)C(F)(F)F` [Example 18, 6,7,8-Trimethoxy-2-(6-methoxy-4-methyl-quinazolin-2-ylamino)-quinazolin-4-ol trifluoroacetate salt] were 16 to 64 µg/mL, 16 to 32 µg/mL, 2 to 64 µg/mL, 0.06 to 16 µg/mL and 64 µg/mL.
